# How the values were obtained:
# [1] = tested on: male or female rats; assay: Reproductive toxicity studies (mating and fertility); assay type: in vivo, rat
# [2] = target: CYP2C9 (Homo sapiens, UniProt P11712); assay: Metabolism, contribution of CYP2C9; assay type: in vitro ADME
# Excerpt: Mavacamten is extensively metabolized, primarily through CYP2C19 (74%), CYP3A4 (18%), and CYP2C9 (8%).
# Statement of Purpose: Mavacamten is a first-in-class, selective, allosteric, and reversible cardiac myosin inhibitor in development for the treatment of adults with symptomatic obstructive hypertrophic cardiomyopathy. Mavacamten is hepatically metabolized predominantly via CYP2C19 (74%), CYP3A4 (18%) and CYP2C9 (8%). A previously developed fit-for-purpose physiologically based pharmacokinetic (PBPK) model was applied to explore the induction effects of a strong CYP3A4/CYP2C19 inducer-rifampin, as well as a strong CYP3A4 inducer-carbamazepine, on mavacamten exposures.
# [3] = Pre/postnatal development study; assay type: in vivo, rat; details: female, rat, in vivo; oral, gestation Day 6 to lactation/post-partum Day 20; highest dosage level tested; read-out: no-observed-adverse-effect level (NOAEL)
# Method: (§1) In a pre/postnatal development study, mavacamten was administered orally to pregnant rats (0.3, to 1.5 mg/kg/day) from gestation Day 6 to lactation/post-partum Day 20.
# [4] = tested on: pregnant rats; assay: Pre/postnatal development study; assay type: in vivo, rat; details: 0.3 to 1.5 mg/kg/day
# Method: as §1
# [5] = tested on: virtual oHCM patients; assay: Exposure-response simulation of titration Regimen #2; set-up: species or system human; details: CYP2C19 phenotype distribution in the EU population
# Excerpt: Mavacamten has substantial pharmacokinetic (PK) variability, the largest contributor being CYP2C19 phenotype. Beyond phenotype, and after incorporation of all PK covariates, a moderate inter-individual variability remains. As a result of the PK variability, there is a need to achieve an ideal balance of reducing the Valsalva left ventricular outflow tract gradient (VLVOT) while maintaining the patient's left ventricular ejection fraction (LVEF), and an echocardiogram (ECHO) based titration regimen was developed. Modeling and simulation analyses have been undertaken to further evaluate dose titration by CYP2C19 phenotype.
# In addition, an exposure-response simulation-based approach was utilized to investigate multiple titration regimens using an equal distribution of CYP2C19 phenotype to allow for additional sensitivity in assessing the performance of the titration regimen for each phenotype. The evaluations included genotype specific dosing and titration, adjusted starting dose of 2.5 mg and additional monitoring intervals. For each posology investigated, the key objectives remained consistent: to limit the percent (%) of simulated patients experiencing LVEF <50%, while gradually up-titrating them to achieve VLVOT <30 mmHg. This Example outlines the evaluation of 3 titration regimens, described below.
# The methods used to conduct the simulations are described as follows. […]
# [6] = tested on: dogs; assay: Animal toxicology, dogs; assay type: in vivo
# Method: The safety of mavacamten has been evaluated in rats and dogs at multiple dose levels (0.06 to 10 mg/kg/day) orally. […] Plasma exposures (AUC) at the NOAEL in rats and dogs were 0.1 and 0.3 times, respectively, human exposure (AUC) at the MRHD.
# [7] = tested on: adults with symptomatic NYHA class II and III obstructive HCM; details: Olivotto et al., 2020, The Lancet; cited from earlier work
# [8] = Pharmacokinetics in hepatic impairment; assay type: in vivo, human; details: mild (Child-Pugh A) or moderate (Child-Pugh B) hepatic impairment vs normal hepatic function
# Excerpt: No dosage adjustment is required in patients with mild (Child-Pugh A) to moderate (Child-Pugh B) hepatic impairment. […] However, no additional dose adjustment is required in patients with mild to moderate hepatic impairment with the recommended dose titration algorithm and monitoring plan. The effect of severe (Child-Pugh C) hepatic impairment is unknown.
# The effect of severe (Child-Pugh C) hepatic impairment is unknown.
# [9] = tested on: bacterial; assay type: cell-based
# Excerpt: Mavacamten was not genotoxic in a bacterial reverse mutation test (Ames test), a human in vitro lymphocyte […] assay, or a rat in vivo micronucleus assay.
# [10] = tested on: HCM patients; assay: Meta-analysis of QTc across clinical studies; assay type: in vivo, human; details: therapeutic exposure range
# Excerpt: The effect of coadministration of MAVACAMTEN with QT-prolonging drugs or in patients with potassium channel variants resulting in a long QT interval have not been characterized.
# [11] = tested on: pregnant rats; assay: Embryo-fetal development study in rats; assay type: in vivo, rat
# Excerpt: Plasma exposure (based on area under the concentration-time curve or AUC) at the no-effect dose for embryo-fetal development in rats is 0.3 times the exposure in humans at the MRHD.
# Sequence of CYP2C9 (P11712 whole entry): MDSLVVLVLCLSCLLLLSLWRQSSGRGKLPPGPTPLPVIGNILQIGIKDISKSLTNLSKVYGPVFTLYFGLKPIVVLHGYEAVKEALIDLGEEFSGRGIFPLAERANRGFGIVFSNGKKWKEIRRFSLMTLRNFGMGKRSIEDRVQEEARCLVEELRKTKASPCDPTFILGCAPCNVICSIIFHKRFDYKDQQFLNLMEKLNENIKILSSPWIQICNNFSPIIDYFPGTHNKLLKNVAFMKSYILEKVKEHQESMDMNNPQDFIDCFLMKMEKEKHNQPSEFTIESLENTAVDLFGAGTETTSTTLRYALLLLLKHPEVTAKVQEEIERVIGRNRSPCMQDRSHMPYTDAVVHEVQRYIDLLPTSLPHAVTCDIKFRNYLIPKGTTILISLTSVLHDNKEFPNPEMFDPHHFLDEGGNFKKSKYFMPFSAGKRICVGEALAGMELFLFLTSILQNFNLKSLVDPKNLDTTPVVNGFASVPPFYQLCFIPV
compound,measurement,setting,value
"CC(C)n1c(=O)cc(N[C@@H](C)c2ccccc2)[nH]c1=O [mavacamten, (S)-3-Isopropyl-6-((1-phenylethyl)amino)pyrimidine-2,4(1H,3H)-dione]",Effects on viability and fertility of offspring,[1]; dams dosed up to 1.5 mg/kg/day,no evidence of effects
same,Plasma exposure (AUC) at the highest dose tested,[1]; vs humans at the MRHD,the same as in humans at the MRHD
same,Metabolism through CYP2C9,[2],8%
same,NOAEL,[3],1.5 mg/kg/day
same,Effects in dams or offspring,[4],No adverse effects were observed in the dams or offspring
same,patients excluded/permanently discontinued overall,[5],< 0.5%
same,Plasma exposure (AUC) at the NOAEL vs human exposure at the MRHD,[6],0.3 times
same,Clinical benefit in EXPLORER-HCM,[7],"effective in reducing LVOT gradients and improving symptoms, exercise performance and health status"
same,Increase in mavacamten exposure (AUC),[8],up to 220%
same,"Genotoxicity, Ames test",[9],not genotoxic
same,QTc interval in HCM patients,[10],does not suggest clinically relevant increases in the QTc interval
same,Embryo-fetal findings in the high dose group,"[11]; oral, 1.5 mg/kg/day, period of organogenesis","increases in post-implantation loss, decreases in mean fetal body weight, reductions in fetal ossification of bones, and fetal malformations (visceral and skeletal)"
same,Plasma exposure (AUC) at the no-effect dose for embryo-fetal development vs humans at the MRHD,[11]; rats,0.3 times
same,Embryo-fetal findings (risk summary),"[11]; rats, dose exposures similar to that at the MRHD","decreases in mean fetal body weight, reductions in fetal ossification of bones, and increases in post-implantation loss"

# From patent US20250360132A1, “METHODS OF ADMINISTERING MYOSIN INHIBITORS” (MYOKARDIA, INC., priority 2022, published 2025)
